Measurements: US20050261174A1, “Insecticidal activity of a cyclic peptide” (priority 2004, published 2005)
Where “and” joins values, the source holds several entries; their conditions need not be identical. Equal entries are not always repeated. Entries after “also recorded” stand apart in the source; their conditions may differ.

Tests used:
Format in all cases: in vivo
[1] = system: beet armyworm (Spodoptera exigua); assay: Beet armyworm topical test
Method: Insecticidal Test for Beet Armyworm (Spodoptera exigua) in Topical Assays.
To prepare topical solutions, 0.5 mg of test compound was dissolved into 0.5 ML of a 90:10 acetone:water solvent. A volume of 1 or 2 μl of the test solutions was topically applied to each of early fourth-instar beet armyworm larvae. Six larvae (6 replications) were used for each treatment. This application rate was equivalent to 1 or 2 μg per larva. Treated larvae were individually placed in wells of 6-well plastic plates and fed an artificial diet. Observations were made at one, two and three days after treatment.

[2] = system: cotton aphid (Aphis gossypii); assay: Insecticidal test for cotton aphid, foliar spray on infested squash cotyledons; settings: for % control: 3 days, population reduction versus untreated
Method: To prepare spray solutions, 0.5 mg of test compound was dissolved into 0.5 mL of a 90:10 acetone: water solvent. This 0.5 mL of chemical solution was added to 4.5 mL of water containing 0.025% Tween 20 surfactant to produce a 100 ppm spray solution. Lower concentrations were made by diluting the 100 ppm solution with water containing 0.025% Tween 20.
Squash cotyledons with a single cotyledon leaf were infested with cotton aphid (wingless adult and nymph) 16-20 hours prior to application of spray solution. The solution was sprayed with a hand-held Devilbiss sprayer on both sides of each infested squash cotyledon until runoff. Reference plants (solvent check) were sprayed with 0.025% Tween 20 containing 9% acetone. The plants were allowed to air dry and held for 3 days in a controlled room at 25° C. and 40% RH after which time the test was graded. Grading was by actual count using a dissecting microscope and comparison of test counts to the untreated check. Results are given in Table 2 as percent control based on population reduction versus the untreated.

[3] = system: green peach aphid (Myzus persicae); assay: Insecticidal test for green peach aphid, foliar spray on infested cabbage seedlings; settings: for No. of live aphid, average / No. of live aphid, plant 1 / No. of live aphid, plant 2 / No. of live aphid, plant 3 / No. of live aphid, plant 4: graded after three days; for % control: three days, population reduction versus untreated
Method: Insecticidal Test for Green Peach Aphid (Myzus persicae).
Cabbage seedlings grown in 3-inch pots, with 2-3 small (3-5 cm) true leaves, were used as test substrate. The seedlings were infested with green peach aphids (wingless adult and nymph) 2-3 days prior to chemical application. Four seedlings were used for each treatment. To prepare spray solutions, 0.5 mg of test compound was dissolved into 0.5 mL of a 90:10 acetone:water solvent. This 0.5 mL of chemical solution was added to 4.5 mL of water containing 0.025% Tween 20 surfactant to produce a 100 ppm spray solution. Lower concentrations were made by diluting the 100 ppm solution with water containing 0.025% Tween 20.
A hand-held Devilbiss sprayer was used for spraying a solution to both sides of cabbage leaves until runoff. Reference plants (solvent check) were sprayed with 0.025% Tween 20 containing 9% acetone. Treated plants were held in a holding room for three days at approximately 25° C. and 40% RH prior to grading. Evaluation was conducted by counting the number of live aphids per plant under a microscope. Results are given in Table 3 as percent control based on population reduction versus the untreated.

[4] = system: tobacco budworm (Heliothis virescens); assay: Tobacco budworm dietary test; settings: for Symptom, 1 day / Symptom, 3 day: second-instar larvae
Method: (§1) Insecticidal Test for Tobacco Budworm (Heliothis virescens), Beet Armyworm (Spodoptera exigua) and Cabbage Looper (Trichoplusia ni) in Dietary Assays.
(§2) Dietary assays were conducted in 128-well plastic trays. To prepare a 1000 ppm stock solution, 0.5 mg of test compound was dissolved into 0.5 mL of a 90:10 acetone:water solvent. The test solutions of 125 ppm and lower concentrations were made by sequentially diluting the stock solution with a 90:10 acetone: water solvent. A volume of 50 μl of the test solutions was pipetted upon the surface of 1 mL of lepidopteran diet (Southland Multi-Species Lepidopteran Diet) in each well of 128-well plastic trays. The highest application rate using the 125 ppm solution was equivalent to 3.1 μg/cm^2. For beet armyworm and cabbage looper, four wells (4 replications) were used for each treatment on each insect species. For tobacco budworm, eight wells (8 replications) were used for each treatment. A second-instar tobacco budworm, two second-instar beet armyworm or two early third-instar cabbage looper larvae were placed upon the treated diet in each well once the solvent had been air-dried. Trays containing the treated diet and larvae were covered with self-adhesive transparent sheets and held in a growth chamber at 25° C., 50-55% RH, and 16 h light: 8 h dark Observation were conducted 1 and 3 days after treatment and infestation.

[5] = system: beet armyworm (Spodoptera exigua); assay: Beet armyworm dietary test; settings: for Symptom, 1 day / Symptom, 3 day: second-instar larvae
Method: as §1, §2

[6] = system: cabbage looper (Trichoplusia ni); assay: Cabbage looper dietary test; settings: for Symptom, 1 day / Symptom, 3 day: early third-instar larvae
Method: as §1, §2

[7] = 4 PPM spray, graded after 3 days
[8] = 20 PPM spray, graded after 3 days
[9] = 100 PPM spray, graded after 3 days
[10] = 1.95 PPM (0.049 ug/cm2) on diet

C/C=C1\NC(=O)[C@H]2CSSCC/C=C/[C@H](CC(=O)N[C@H](C(C)C)C(=O)N2)OC(=O)[C@H](C(C)C)NC1=O [compound of formula (I), FR901228]
% Mortality, 1 day ([1]; 1 ug/larva topical, 1 day): 0%
% Mortality, 2 day ([1]; 1 ug/larva topical): 17%
% Mortality, 3 day ([1]; 1 ug/larva topical, 3 day): 67%
% Mortality, 1 day ([1]; 2 ug/larva topical, 1 day): 0%
% Mortality, 2 day ([1]; 2 ug/larva topical): 85%
% Mortality, 3 day ([1]; 2 ug/larva topical, 3 day): 100%

C/C=C1\NC(=O)C2CSSCC/C=C/C(CC(=O)NC(C(C)C)C(=O)N2)OC(=O)C(C(C)C)NC1=O (centres unmarked) [compound of formula (I), FR901228]
% control ([2]; 4 PPM spray): 87%
No. of live aphid, average [2, 7]: 27
No. of live aphid, plant 1 [2, 7]: 27
No. of live aphid, plant 2 [2, 7]: 40
No. of live aphid, plant 3 [2, 7]: 64
No. of live aphid, plant 4 [2, 7]: 83
% control ([2]; 20 PPM spray): 95.2%
No. of live aphid, average [2, 8]: 10
No. of live aphid, plant 1 [2, 8]: 16
No. of live aphid, plant 2 [2, 8]: 4
% control ([2]; 100 PPM spray): 100%
No. of live aphid, average [2, 9]: 0
No. of live aphid, plant 1 [2, 9]: 0
No. of live aphid, plant 2 [2, 9]: 0
No. of live aphid, average ([3]; 20 PPM spray): 55
No. of live aphid, plant 1 ([3]; 20 PPM spray): 47
No. of live aphid, plant 2 ([3]; 20 PPM spray): 53
No. of live aphid, plant 3 ([3]; 20 PPM spray): 87
No. of live aphid, plant 4 ([3]; 20 PPM spray): 32
% control ([3]; 20 PPM spray): 35.8%
No. of live aphid, average ([3]; 100 PPM spray): 24
No. of live aphid, plant 1 ([3]; 100 PPM spray): 8
No. of live aphid, plant 2 ([3]; 100 PPM spray): 31
No. of live aphid, plant 3 ([3]; 100 PPM spray): 30
No. of live aphid, plant 4 ([3]; 100 PPM spray): 26
% control ([3]; 100 PPM spray): 72.1%
% Dead, 1 day ([4]; 1 PPM (0.025 ug/cm2) on diet): 0%
% Dead, 3 day ([4]; 1 PPM (0.025 ug/cm2) on diet): 0%
Symptom, 1 day ([4]; 1 PPM (0.025 ug/cm2) on diet): none
% Dead, 1 day ([4]; 5 PPM (0.13 ug/cm2) on diet): 0%
% Dead, 3 day ([4]; 5 PPM (0.13 ug/cm2) on diet): 0%
Symptom, 1 day ([4]; 5 PPM (0.13 ug/cm2) on diet): 80% size of UTC
Symptom, 3 day ([4]; 5 PPM (0.13 ug/cm2) on diet): 60% size of UTC
% Dead, 1 day ([4]; 25 PPM (0.63 ug/cm2) on diet): 0%
% Dead, 3 day ([4]; 25 PPM (0.63 ug/cm2) on diet): 0%
Symptom, 1 day ([4]; 25 PPM (0.63 ug/cm2) on diet): 60% size of UTC
Symptom, 3 day ([4]; 25 PPM (0.63 ug/cm2) on diet): 40% size of UTC
% Dead, 1 day ([4]; 125 PPM (3.1 ug/cm2) on diet): 0%
% Dead, 3 day ([4]; 125 PPM (3.1 ug/cm2) on diet): 0%
% Dead, 1 day [5, 10]: 0%
% Dead, 3 day [5, 10]: 0%
Symptom, 1 day [5, 10]: 90% size of UTC
Symptom, 3 day [5, 10]: 30% size of UTC
% Dead, 1 day ([5]; 7.8 PPM (0.195 ug/cm2) on diet): 0%
% Dead, 3 day ([5]; 7.8 PPM (0.195 ug/cm2) on diet): 0%
Symptom, 1 day ([5]; 7.8 PPM (0.195 ug/cm2) on diet): 70% size of UTC
Symptom, 3 day ([5]; 7.8 PPM (0.195 ug/cm2) on diet): 15% size of UTC
% Dead, 1 day ([5]; 31.3 PPM (0.78 ug/cm2) on diet): 0%
% Dead, 3 day ([5]; 31.3 PPM (0.78 ug/cm2) on diet): 0%
Symptom, 1 day ([5]; 31.3 PPM (0.78 ug/cm2) on diet): 50% size of UTC
Symptom, 3 day ([5]; 31.3 PPM (0.78 ug/cm2) on diet): 10% size of UTC
% Dead, 1 day ([5]; 125 PPM (3.1 ug/cm2) on diet): 0%
% Dead, 3 day ([5]; 125 PPM (3.1 ug/cm2) on diet): 100%
Symptom, 1 day ([5]; 125 PPM (3.1 ug/cm2) on diet): 30% size of UTC
Symptom, 3 day ([5]; 125 PPM (3.1 ug/cm2) on diet): all dead
% Dead, 1 day [6, 10]: 0%
% Dead, 3 day [6, 10]: 0%
Symptom, 1 day [6, 10]: none
Symptom, 3 day [6, 10]: none
% Dead, 1 day ([6]; 7.8 PPM (0.195 ug/cm2) on diet): 0%
% Dead, 3 day ([6]; 7.8 PPM (0.195 ug/cm2) on diet): 0%
Symptom, 1 day ([6]; 7.8 PPM (0.195 ug/cm2) on diet): none
Symptom, 3 day ([6]; 7.8 PPM (0.195 ug/cm2) on diet): 60% size of UTC
% Dead, 1 day ([6]; 31.3 PPM (0.78 ug/cm2) on diet): 0%
% Dead, 3 day ([6]; 31.3 PPM (0.78 ug/cm2) on diet): 0%
Symptom, 1 day ([6]; 31.3 PPM (0.78 ug/cm2) on diet): none
Symptom, 3 day ([6]; 31.3 PPM (0.78 ug/cm2) on diet): 40% size of UTC
% Dead, 1 day ([6]; 125 PPM (3.1 ug/cm2) on diet): 25%
% Dead, 3 day ([6]; 125 PPM (3.1 ug/cm2) on diet): 50%
Symptom, 1 day ([1]; 1 ug/larva topical, early fourth-instar larvae, 1 day): 2 dying w/duiresis, and 2 unable to right, and 2 small, 1 OK
Symptom, 3 day ([1]; 2 ug/larva topical, early fourth-instar larvae, 3 day): all dead; also recorded: w/duiresis
